Data reported in patent publication US7560473B2 (Institute of Pharmacology and Toxicology Academy of …, priority 2001, dated 2009).
Marks after values point to notes of the source that are not given here.

Assays:
[1] = molecular target: T1, ATP-sensitive potassium channels in vascular smooth muscles (Rattus norvegicus, UniProt Q63563); assay: Association kinetics of [^3H]P1075 binding in aortic rings; set-up: species or system Wistar rat; settings: 37° C.; drug M: Compound 1 10^−4, Glibencamide 10^−5, ATP 10^−2, ADP 10^−3, UDP 5 × 10^−5, GTP 10^−3, Ade 10^−3; control 4.36 ± 0.45; means ± SD, n = 4~10
T1 construct: The aorta was cut into about 3-5 mm arterial rings and the vascular endothelium was scraped off; from tissue; host or cells: endothelium-removed aortic rings of male Wistar rats
Description: Biological activity experiment 4. Allosteric regulation of novel compounds on ATP-sensitive potassium channels in vascular smooth muscles.
To study the allosteric regulation of compound 1 on ATP-sensitive potassium channels in vascular smooth muscles, the radio-labled-ligand was used in the biological activity experiment 4.
1. The allosteric regulation of compound 1 on the binding sites for the selective KATP blocker glibenclamide in vascular smooth muscles was studied as follows: After decapitated, the male Wistar rat (340±20 g) was immediately incised open the thoracic cavity. The aorta was dissected and immersed in the 4° C. buffer containing 10 mM HEPES to wash off the blood, then carefully extirpated the fat, peripheral connective tissues and thrombus. The aorta was cut into about 3-5 mm arterial rings and the vascular endothelium was scraped off with wet tampon. The arterial rings were blotted, weighted and transferred into the tubes containing proper amount of ice colded physiological saline buffer. In the association kinetics experiment, the arterial circles in the tubes were incubated with, compound 1(10^−4M), pinacidil(10^−4M), ATP(10^−2M), ADP(10^−3M), Ade(10^−3M), […] and equal volume of buffer respectively for 10 min in 25° C. water bath, and then added [^3H]-glibenclamide(3 nM). At 5,10,15,20,30,60,90 and 120 min after incubation, 9 mL ice colded Tris buffer (50 mM) was added to terminate the reaction. After washing off the free and bound [^3H]-glibenclamide, the aorta was blotted, transferred to a scintillator, added 50 uL 30% H2O2 and reacted for 2 h at 80° C. After cooling, 2.5 mL ethyl glycol and 5 mL 1% B-BPD xylene were added in sequence, kept stationary for 8 h and measured under a scintillometer for cpm value. The resulting data were fit into a regression line with In[BEQ/(BEQ-Bt)]vs.t and the parameters for association kinetics were obtained. In the disassociation kinetics experiments, the aorta treated as described above and [^3H]-glibenclamide were incubated for 60 min at 25° C., and then 30 uM glibenclamide was added. 0,5,15,30,60,90 and 120 min later, the cpm values for the complex of [^3H]-glibenclamide and KATP were measured. The resulting data were fit into a regression line with In(B/BEQ)]vs.t and the parameters for disassociation kinetics were obtained. 2. The allosteric regulation of compound 1 on the binding sites for the selective KATP activator P1075 in vascular smooth muscles was studied with the method as described above, but some conditions should be changed as follows: the incubation temperature was 37° C. instead of 25° C.;P1075 was used instead of glibenclamide; In the association kinetics experiments, the time points for sampling were 5,10,15,20,30,45,60 and 90 min, while in the disassociation kinetics experiments, that were 1,3,5,10,20,30,45 and 60 min. Biological activity experiment 5. The effects of compound 1 on the specific binding of high selective activator [^3H]P1075 with ATP-sensitive potassium channels in vascular smooth muscles.

SHRsp = assay: Prophylaxis and treatment of SHRsp cerebral apoplexy; format: in vivo, rats; settings: 40 mg · kg^−1d^−1 fed
Protocol: Biological activity experiment 8 the prophylaxis and treatment of cerebral apoplexy with compound 1 of formula Ia
The methods of biological activity experiments were carried out as follows: Desired concentration of compound 1 was prepared with distilled water, while desired concentration of nimodipine was prepared with market available Jinglongyu^T oil. 30 male and 30 female SHRsp (10 weeks old, 120-180 g) were purchased from the vascular disease research center of Academy of Military Medical Science. All SHRsp were divided randomly into five groups based on blood pressure, body weight and sex: control group (fed with equal amount of Jinglongyu^T oil), […], […], […], and 4.0 mg.kg^−1d^−1 nimodipine treated group. Each group contained 12 animals and 4-5 animals were fed in a cage. The feedstaff (containing 23-24% protein) was purchased from experimental animal center of Academy of Military Medical Science. The animals were fed with tap water containing 1% NaCl to accelerate the onset of cerebral apoplexy. 12 normal WKY rats (with the same age and sex with the above) were selected as control, and fed with tap water and the same feedstuff. When reached 11 weeks old, the animals were fed with drugs for experiments.

[2] = molecular target: T1, ATP-sensitive potassium channels in vascular smooth muscles; assay: Inhibition of specific binding of [^3H]P1075 in endothelium-removed rat aorta; set-up: species or system Wistar rat; settings: [^3H] P1075 5 nmol L^−1, 90 minutes at 37° C., endothelium-removed rat aorta
[3] = system: outward potassium currents of rat tail arterial SMCs; assay: Whole cell recording of outward potassium currents in rat tail arterial SMCs; format: cell-based, Wistar rats; settings: for Currents, + Compound: outward potassium current amplitude after compound 100 μmol L^−1 in the bath; for Currents, + Compound / Currents, Control (before compound application): X ± SD n = 5; for Currents, Control (before compound application): outward potassium current amplitude before compound application, same cells
Description: Biological activity experiments 6. The effects of novel compounds on potassium currents in isolated arterial vascular smooth muscle cells (SMCs).
The outward currents were, elicited in rat tail arterial SMCs by superfusing extracellular solution under whole cell recording configuration that the depolarizing pulse were applied from −30 mV to +100 mV with the holding potential of −40 mV in 100 ms, 10 mV clamp steps, a frequency of 5 KHz. The compounds were applied in the bath at the concentrations of 100 μmol L^−1. The amplitude of the outward potassium currents was recorded before and after compound application Values were expressed as means±SD. Statistical significance between two groups was evaluated by student's t-test for paired data * P<0.05 **P<0.01 vs control.
1. Preparation of single smooth muscle cells from rat tail arteries: Male Wistar rats (200-250 g) were killed by exsanguination. The tail artery was dissected out and transferred into cold physiological salt solution (PSS) of the following composition (in mM): NaCl 118.3, KCl 4.7, KH2PO4 1.2, MgSO4 1.2, NaHCO3 25.0, CaCl2 2.5, EDTA 0.026 and Glucose 5.0 pH7.4. With the use of a dissecting microscope, the connective tissues were removed and the artery was cut open longitudinally. Endothelium was removed carefully with a cotton swab then the artery was cut into segments with 1 mm long and placed in 4° C. the extracellular solution containing (in mM) NaCl 130, KCl 5, MgCl2 1.2, HEPES 10, Glucose 10, pH7.2 for 20 min. After this incubation, the medium was changed to enzyme solution which was composed of collagenase I (1 mg ml^−1), papain (5 mg ml^−) and bovine serum albumin (2 mg ml^−1). The tissues, were incubated in this solution for 40 min, and then rinsed three times triturated using a fire-polished Pasteur pipette until the medium turned cloudily. The cell suspension was stored in the refrigerator at 4° C.
3. Whole cell recordings: A bath dish with the smooth muscle cells (SMCs) attached and superfused with the extracellular solution at a flow rate of 2 ml min^−1 was mounted onto the stage of an inverted-phase contrast microscope. The microelectrodes having a resistance of (5-8 MΩ) were made from boroscilicate thin-wall glass capillaries, using an automatic multiple-stage, electronic puller (PP830 Japan) and then heat-polished. After establishing a high resistance seal, the patch membrane was disrupted by negative pressure. A commercial patch clamp amplifier (Axon 200B) was used to generate and apply voltages and sample current signals from the cell.

[4] = system: rats anesthetized with pentobarbital sodium; assay: Effects on blood pressure, heart rate, cardiac contraction and dilation in rats anesthetized with pentobarbital sodium; format: in vivo, Wistar rats; set-up: unit not given here; settings: change after injection through femoral vein, '+' = increase, all others = decrease; for MBP: mean blood pressure: n = 3~5, doses mg/kg: 2, 8, 12: 10, 3-7, 9-11, 40-44: 5; for DBP: diastolic blood pressure / HR: heart rate / LVSP: left ventricular systolic pressure / SBP: systolic blood pressure / Vpm: the physiological velocity of contractile element shorting / −dp/dtmax: the maximal rate of the decrease of left ventricular pressure: mean, n = 3~5, doses mg/kg: 2, 8, 12: 10, 3-7, 9-11, 40-44: 5
Protocol: Biological activity experiment 1. The effects of 16 compounds represented by formula I on blood pressure, heart rate, cardiac contraction and dilation in rats anesthetized with pentobarbital sodium.
The methods of biological activity experiment 1 were as follows: Male Wistar rats, weighing 280±30 g were purchased from the experimental animal center of Academy of Military Medical Sciences. Rats were anesthetized with pentobarbital sodium (45 mg/kg) by peritoneal injection. A PE50 polyethylene catheter was inserted into the left ventricle through right carotid artery for cardiac function measurement with a pressure energe exchanger, wherein the signal is put into a SMUP-PC biosignal processing system. Cardiac functional parameters such as HR, LVSP, +dp/dtmax, −dp/dtmax and Vpm were recorded. Another two PE50 polyethylene catheters were inserted into the right femoral artery and vein respectively for blood pressure measurement wherein the artery cathether was linked to a four-channel physiology recorder (RM-6000) through a MPU-0.5A Type pressure energe exchanger, which recorded SBP, DBP and MBP, while the vein catheter was used for compound administration. The methods were described by Liu Wei et al: Liu Wei, Wang Hai, Xiao Wen-Bin. […] Bull Acad Mil Med Sci 1996;20(4):245˜248.

T1 sequence (Q63563 1-1545 isoform Q63563-2): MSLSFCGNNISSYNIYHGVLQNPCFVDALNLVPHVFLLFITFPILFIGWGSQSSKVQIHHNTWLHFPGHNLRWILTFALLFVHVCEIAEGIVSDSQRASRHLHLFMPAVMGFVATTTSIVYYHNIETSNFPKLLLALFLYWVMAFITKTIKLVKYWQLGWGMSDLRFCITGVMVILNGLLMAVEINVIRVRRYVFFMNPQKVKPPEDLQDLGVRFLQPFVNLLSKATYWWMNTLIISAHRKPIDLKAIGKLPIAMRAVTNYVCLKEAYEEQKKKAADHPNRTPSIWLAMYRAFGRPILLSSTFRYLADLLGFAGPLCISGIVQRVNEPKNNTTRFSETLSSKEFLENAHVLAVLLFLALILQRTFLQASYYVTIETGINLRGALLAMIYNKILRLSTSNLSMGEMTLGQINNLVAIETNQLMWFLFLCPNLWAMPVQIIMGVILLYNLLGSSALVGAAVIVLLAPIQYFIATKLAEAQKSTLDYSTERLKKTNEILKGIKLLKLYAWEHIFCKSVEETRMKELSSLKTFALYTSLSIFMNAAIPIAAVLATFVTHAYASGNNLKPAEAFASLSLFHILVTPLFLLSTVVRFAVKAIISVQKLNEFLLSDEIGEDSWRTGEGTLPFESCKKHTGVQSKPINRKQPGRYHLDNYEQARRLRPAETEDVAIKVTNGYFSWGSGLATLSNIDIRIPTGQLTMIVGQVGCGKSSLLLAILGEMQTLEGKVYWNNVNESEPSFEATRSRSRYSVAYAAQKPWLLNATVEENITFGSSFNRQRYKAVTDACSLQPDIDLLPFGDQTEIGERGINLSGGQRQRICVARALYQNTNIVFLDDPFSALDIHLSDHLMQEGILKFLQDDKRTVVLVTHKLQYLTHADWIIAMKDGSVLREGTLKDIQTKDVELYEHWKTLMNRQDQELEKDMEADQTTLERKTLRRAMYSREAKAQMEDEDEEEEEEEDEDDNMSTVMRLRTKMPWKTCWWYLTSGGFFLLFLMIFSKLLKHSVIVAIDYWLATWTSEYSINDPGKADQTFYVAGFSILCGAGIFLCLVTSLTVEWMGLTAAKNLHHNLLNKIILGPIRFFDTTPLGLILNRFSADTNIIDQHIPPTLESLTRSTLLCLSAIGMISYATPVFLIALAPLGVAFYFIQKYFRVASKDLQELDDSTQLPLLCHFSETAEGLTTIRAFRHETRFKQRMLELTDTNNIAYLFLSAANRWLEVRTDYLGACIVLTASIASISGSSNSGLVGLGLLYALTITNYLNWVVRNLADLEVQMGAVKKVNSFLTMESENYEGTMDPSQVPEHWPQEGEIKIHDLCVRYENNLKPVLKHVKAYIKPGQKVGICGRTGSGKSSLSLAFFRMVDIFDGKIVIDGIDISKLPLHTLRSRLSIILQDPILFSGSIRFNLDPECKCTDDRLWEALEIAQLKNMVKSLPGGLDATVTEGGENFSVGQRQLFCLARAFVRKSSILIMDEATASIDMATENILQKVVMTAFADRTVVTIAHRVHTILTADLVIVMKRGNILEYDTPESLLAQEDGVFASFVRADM
T1 sequence (Q63664 whole entry partner): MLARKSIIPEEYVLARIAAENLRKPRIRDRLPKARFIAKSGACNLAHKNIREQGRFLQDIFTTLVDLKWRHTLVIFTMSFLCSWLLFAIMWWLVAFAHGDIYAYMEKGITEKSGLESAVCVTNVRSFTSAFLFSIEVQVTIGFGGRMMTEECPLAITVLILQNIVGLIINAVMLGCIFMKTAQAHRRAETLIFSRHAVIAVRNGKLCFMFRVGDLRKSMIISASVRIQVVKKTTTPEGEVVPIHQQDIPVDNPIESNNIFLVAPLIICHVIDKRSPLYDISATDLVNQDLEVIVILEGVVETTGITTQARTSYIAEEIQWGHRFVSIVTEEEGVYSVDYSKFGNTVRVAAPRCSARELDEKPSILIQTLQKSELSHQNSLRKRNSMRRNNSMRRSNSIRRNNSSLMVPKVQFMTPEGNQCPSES

Structure (SMILES) | Currents, + Compound [3] | Currents, Control (before compound application) [3] [nA] | MBP: mean blood pressure [4] | DBP: diastolic blood pressure [4] | HR: heart rate [4] | LVSP: left ventricular systolic pressure [4] | SBP: systolic blood pressure [4] | Vpm: the physiological velocity of contractile element shorting [4] | −dp/dtmax: the maximal rate of the decrease of left ventricular pressure [4] | further results
Nc1nc2c(ncn2[C@@H]2O[C@H](COP(=O)(O)OP(=O)(O)OP(=O)(O)O)[C@@H](O)[C@H]2O)c(=O)[nH]1 [GTP] |  |  |  |  |  |  |  |  |  | Association kinetics kobs of [^3H]P1075 binding [1]: 3.86 ± 0.19 ×10^−2 nM^−1 · min^−1
COCCOC(=O)C1=C(C)NC(C)=C(C(=O)OC(C)C)C1c1cccc([N+](=O)[O-])c1 (centres unmarked) [Nimodipine, nimodipine, reference compound] |  |  |  |  |  |  |  |  |  | Survival time (SHRsp; control 4.6 ± 3.8, means ± SD): 11.1 ± 2.7 days; Period needed for onset of cerebral apoplexy (SHRsp; control 48.3 ± 7.4, means ± SD): 66.0 ± 14.8 days; Death rate of cerebral apoplexy (SHRsp; n 12, control 50.0): 9.1* %; Rate of cerebral apoplexy (SHRsp; n 12, control 83.3): 36.4* %
CCC(C)(C)N=C(NC#N)Nc1cccnc1 [P1075, reference compound] |  |  |  |  |  |  |  |  |  | IC50 [2]: 9.1 ± 1.3 nM
CC(C)C(C)(C)N [compound 2] | 1.01 ± 0.57 nA | 0.91 ± 0.49 | 24 | 15 | 20 | 116 | 38 | 1.16 | 54 | 
CNC(C)(C)C(C)C [compound 3] | 0.60 ± 0.34 nA | 0.56 ± 0.31 | 22 | 19 | 43 | 111 | 29 | 0.49 | 157 | 
CCNC(C)(C)C(C)C [compound 4] | 0.69 ± 0.14** nA | 0.61 ± 0.12 | 25 | 23 | 44 | 146 | 31 | 0.45 | 177 | 
CCCCNC(C)(C)C(C)C [compound 6, N-butyl-2,3-dimehyl-2-butylamine] | 1.18 ± 0.54* nA | 0.49 ± 0.23 | 49 | 43 | 111 | 263 | 61 | 0.98 | 276 | 
CCC(C)NC(C)(C)C(C)C (centres unmarked) [compound 13, N-(1-methylpropyl)-2,3-dimethyl-2-butylamine] | 0.85 ± 0.31** nA | 0.55 ± 0.34 |  |  |  |  |  |  |  | 
CC(C)C(C)(C)NCC1CC1 [compound 15, N-cyclopropylmethyl-2,3-dimethyl-2-butylamine] | 1.30 ± 0.45* nA | 0.83 ± 0.24 |  |  |  |  |  |  |  | 
CC(C)C(C)(C)NCc1ccccc1 [compound 24] | 0.63 ± 0.19 nA | 0.65 ± 0.19 |  |  |  |  |  |  |  | 
C=CCNC(C)(C)C(C)C [compound 25, N-allyl-2,3-dimethyl-2-butylamine] | 1.46 ± 0.50** nA | 0.68 ± 0.19 |  |  |  |  |  |  |  | stimulation of potassium channel activities (in words) ([3]; 100 μmol L^−1, rat tail arterial SMCs): Maximum potency
CC(C)C(C)(C)NC(=O)c1cccnc1 [compound 39] | 0.51 ± 0.22 nA | 0.46 ± 0.14 |  |  |  |  |  |  |  | 
